Test results from ChEMBL document CHEMBL5154724, “Cathepsin D inhibitors based on tasiamide B derivatives with cell membrane permeability” (Bioorg Med Chem, 2022).
Structures can show the parent of a compound that is named as a salt. *1 amine or outer side, *2 acyl side, *3 side chain or, on linkers, in order; H or OH if unused. Where a SMILES comes first, the peptide text is derived from it. [ ]: non-standard residue; d: D form. The star is where a group is joined. Ahppa(3S,4S) = O=C(C[C@H](O)[C@H](Cc1ccccc1)N[*:1])[*:2]; dNMeF = CN[C@H](Cc1ccccc1)C(=O)O; NMeQ = CN[C@@H](CCC(N)=O)C(=O)O; Cbz = O=C(OCc1ccccc1)*

Legend:
[1] = system: A549; test: Antiproliferative activity against human A549 cells assessed as reduction in cell viability after 72 hrs by CCK-8 assay; type: functional, cell-based; conditions: A549, 72 h
[2] = system: MDA-MB-231; test: Antiproliferative activity against human MDA-MB-231 cells assessed as reduction in cell viability after 72 hrs by CCK-8 assay; type: functional, cell-based; conditions: MDA-MB-231, 72 h
[3] = system: MDA-MB-231; test: Antiproliferative activity against human MDA-MB-231 cells assessed as reduction in cell viability at 10 uM after 72 hrs by CCK-8 assay relative to control; type: functional
[4] = system: HepG2; test: Antiproliferative activity against human HepG2 cells assessed as reduction in cell viability after 72 hrs by CCK-8 assay; type: functional, cell-based; conditions: HepG2, 72 h
[5] = molecular target: Cathepsin D (Homo sapiens, UniProt P07339); test: Inhibition of recombinant human liver Cathepsin D using Mca-Gly-Lys-Pro-Ile-Leu-Phe-Phe-Arg-Leu-Lys-(Dnp)-D-Arg-NH2 as substrate incubated for 120 mins by fluorescence assay
[6] = Drug uptake in human MDA-MB-231 cells assessed as increase in internalization at 10 uM after 16 to 24 hrs by LTG/Hoechst 33258 staining based confocal laser scanning microscopy; type: ADME, cell-based; conditions: mda-mb-231, 10 µM, time 16-24 hrs
[7] = molecular target: Beta-secretase 1 (Homo sapiens, UniProt P56817); test: Inhibition of BACE1 (unknown origin) using Mca-Ser-Glu-Val-Asn-Leu-Asp-Ala-Glu-Phe-Arg-Lys(Dnp)-Arg-Arg-NH2 as substrate incubated for 120 mins by fluorescence assay
[8] = molecular target: T1, Cathepsin E (Homo sapiens, UniProt P14091); test: Inhibition of Cathepsin E (unknown origin) using Mca-Gly-Lys-Pro-Ile-Leu-Phe-Phe-Arg-Leu-Lys-(Dnp)-D-Arg-NH2 as substrate incubated for 120 mins by fluorescence assay
T1 sequence (P14091 whole entry): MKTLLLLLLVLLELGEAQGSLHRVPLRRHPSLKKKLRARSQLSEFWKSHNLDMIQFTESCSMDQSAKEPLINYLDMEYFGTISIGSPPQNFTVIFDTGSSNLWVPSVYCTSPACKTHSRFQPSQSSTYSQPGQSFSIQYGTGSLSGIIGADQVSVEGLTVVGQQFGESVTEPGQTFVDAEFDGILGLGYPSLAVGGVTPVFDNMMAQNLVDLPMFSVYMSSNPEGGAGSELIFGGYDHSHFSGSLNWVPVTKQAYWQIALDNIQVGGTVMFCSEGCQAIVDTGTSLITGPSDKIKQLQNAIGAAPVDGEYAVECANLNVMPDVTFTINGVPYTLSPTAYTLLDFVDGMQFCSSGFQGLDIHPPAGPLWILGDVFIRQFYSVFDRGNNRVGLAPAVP

[9] = Drug uptake in human MDA-MB-231 cells assessed as increase in co-localization with lysosomal at 10 uM after 16 hrs by LTG/Hoechst 33258 staining based confocal laser scanning microscopy; type: ADME, cell-based; conditions: mda-mb-231, 16 h
[10] = Drug uptake in human MDA-MB-231 cells assessed as increase in internalization at 10 uM after 3 to 24 hrs by LTG/Hoechst 33258 staining based confocal laser scanning microscopy; type: ADME, cell-based; conditions: mda-mb-231, 10 µM, time 3-24 hrs

Sequence of Cathepsin D (P07339 65-162 limits assumed): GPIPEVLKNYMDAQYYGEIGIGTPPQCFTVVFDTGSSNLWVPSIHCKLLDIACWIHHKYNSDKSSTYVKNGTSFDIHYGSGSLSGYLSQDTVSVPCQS
Sequence of Cathepsin D (P07339 169-412 limits assumed): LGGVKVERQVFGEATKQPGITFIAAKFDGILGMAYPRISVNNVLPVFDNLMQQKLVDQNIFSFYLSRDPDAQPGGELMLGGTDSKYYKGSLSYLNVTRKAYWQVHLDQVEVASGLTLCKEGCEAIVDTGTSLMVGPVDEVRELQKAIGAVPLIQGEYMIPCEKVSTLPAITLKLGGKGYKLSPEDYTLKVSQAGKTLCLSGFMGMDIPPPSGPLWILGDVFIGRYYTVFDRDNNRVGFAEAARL
Sequence of Beta-secretase 1 (P56817 whole entry): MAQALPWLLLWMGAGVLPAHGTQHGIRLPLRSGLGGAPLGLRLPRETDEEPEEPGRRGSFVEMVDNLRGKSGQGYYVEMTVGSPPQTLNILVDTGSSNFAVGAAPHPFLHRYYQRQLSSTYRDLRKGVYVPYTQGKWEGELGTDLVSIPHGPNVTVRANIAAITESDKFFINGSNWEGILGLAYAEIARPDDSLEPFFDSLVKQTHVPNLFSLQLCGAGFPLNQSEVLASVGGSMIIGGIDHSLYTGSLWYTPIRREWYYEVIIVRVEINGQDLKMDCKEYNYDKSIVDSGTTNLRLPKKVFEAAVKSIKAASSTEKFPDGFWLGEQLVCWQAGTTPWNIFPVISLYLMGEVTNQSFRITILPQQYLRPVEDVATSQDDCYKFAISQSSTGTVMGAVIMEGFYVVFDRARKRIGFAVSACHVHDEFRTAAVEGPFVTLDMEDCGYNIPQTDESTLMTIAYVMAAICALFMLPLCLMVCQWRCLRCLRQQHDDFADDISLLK

Row | Compound | IC50 [1] | IC50 [2] | inhibition at 10 µM [3] | IC50 [4] | IC50 [5] | Drug uptake [6] | IC50 [7] | IC50 [8] | Drug uptake [9] | Drug uptake [10]
1 | COC(=O)[C@@H]1CCCN1C(=O)[C@@H](Cc1ccccc1)N(C)C(=O)[C@H](C)NC(=O)[C@H](CC(C)C)NC(=O)C[C@H](O)[C@H](Cc1ccccc1)NC(=O)[C@H](CCC(N)=O)N(C)C(=O)[C@@H](NC(=O)OCc1ccccc1)C(C)C (Cbz-V[NMeQ][Ahppa(3S,4S)]LA[dNMeF]P-OMe) | > 10 µM | > 10 µM | 14% | > 10 µM | – | – | – | – | – | –
2 | CC(C)C[C@H](NC(=O)C[C@H](O)[C@H](Cc1ccccc1)NC(=O)[C@H](CCC(N)=O)N(C)C(=O)[C@@H](NC(=O)OCc1ccccc1)C(C)C)C(=O)N[C@@H](C)C(=O)N(C)[C@H](Cc1ccccc1)C(=O)N1CCC[C@H]1C(=O)NCCOCCOCCn1cc(CNC(=O)[C@H](CCCCNC(=O)[C@H](CCCCN)NC(=O)[C@H](CCCCN)NC(=O)[C@H](CCC(N)=O)NC(=O)[C@H](CO)NC(=O)CCN2c3ccccc3C(C)(C)[C@]23C=Cc2cc([N+](=O)[O-])ccc2O3)NC(=O)[C@H](CCCCN)NC(=O)[C@H](CCCCN)NC(=O)C(CCC(N)=O)NC(=O)[C@H](CO)NC(=O)CCN2c3ccccc3C(C)(C)[C@]23CCc2cc([N+](=O)[O-])ccc2O3)nn1 (some centres not stated) | > 10 µM | > 10 µM | 49% | > 10 µM | 41 nM | Active | 1030 nM | 100 nM | – | –
3 | C#CCNC(=O)[C@H](CCCCNC(=O)[C@H](CCCCN)NC(=O)[C@H](CCCCN)NC(=O)[C@H](CCC(N)=O)NC(=O)[C@H](CO)NC(=O)CCN1c2ccccc2C(C)(C)[C@]12CCc1cc([N+](=O)[O-])ccc1O2)NC(=O)[C@H](CCCCN)NC(=O)[C@H](CCCCN)NC(=O)C(CCC(N)=O)NC(=O)[C@H](CO)NC(=O)CCN1c2ccccc2C(C)(C)[C@]12CCc1cc([N+](=O)[O-])ccc1O2 (some centres not stated) | – | – | – | – | – | – | – | – | Active | Active
4 | CC(C)C[C@H](NC(=O)C[C@H](O)[C@H](Cc1ccccc1)NC(=O)[C@H](CCC(N)=O)N(C)C(=O)[C@@H](NC(=O)OCc1ccccc1)C(C)C)C(=O)N[C@@H](C)C(=O)N(C)[C@H](Cc1ccccc1)C(=O)N1CCC[C@H]1C(=O)O | – | – | – | – | 4.89 nM | – | – | 120 nM | – | –
5 | COC(=O)[C@@H]1CCCN1C(=O)[C@@H](Cc1ccc(OC(C)(C)C)cc1)N(C)C(=O)[C@H](C)NC(=O)[C@H](CC(C)C)NC(=O)C[C@H](O)[C@H](Cc1ccccc1)NC(=O)[C@H](CCC(N)=O)N(C)C(=O)[C@@H](NC(=O)OCc1ccccc1)C(C)C | – | – | – | – | 18 nM | – | – | 105 nM | – | –
6 | CC(C)C[C@H](NC(=O)C[C@H](O)[C@H](Cc1ccccc1)NC(=O)[C@H](CCC(N)=O)N(C)C(=O)[C@@H](NC(=O)OCc1ccccc1)C(C)C)C(=O)N[C@@H](C)C(=O)N(C)[C@H](Cc1ccc(OC(C)(C)C)cc1)C(=O)N1CCC[C@H]1C(=O)O | – | – | – | – | 19 nM | – | – | 187 nM | – | –
7 | COC(=O)[C@@H]1CCCN1C(=O)[C@@H](Cc1ccc(O)cc1)N(C)C(=O)[C@H](C)NC(=O)[C@H](CC(C)C)NC(=O)C[C@H](O)[C@H](Cc1ccccc1)NC(=O)[C@H](CCC(N)=O)N(C)C(=O)[C@@H](NC(=O)OCc1ccccc1)C(C)C | > 10 µM | > 10 µM | 12% | > 10 µM | 0.178 nM | – | – | 104 nM | – | –
8 | COc1cccc2c1C(=O)c1c(O)c3c(c(O)c1C2=O)C[C@@](O)(C(=O)CO)C[C@@H]3O[C@H]1C[C@H](N)[C@H](O)[C@H](C)O1 [DOXORUBICIN HYDROCHLORIDE] | 0.4 µM | 0.37 µM | 70% | – | – | – | – | – | – | –
9 | CC(C)C[C@H](NC(=O)C[C@H](O)[C@H](Cc1ccccc1)NC(=O)[C@H](CCC(N)=O)N(C)C(=O)[C@@H](NC(=O)OCc1ccccc1)C(C)C)C(=O)N[C@@H](C)C(=O)N(C)[C@H](Cc1ccc(O)cc1)C(=O)N1CCC[C@H]1C(=O)NCCOCCOCCn1cc(CNC(=O)[C@H](CCCCNC(=O)[C@H](CCCCN)NC(=O)[C@H](CCCCN)NC(=O)[C@H](CCC(N)=O)NC(=O)[C@H](CO)NC(=O)CCN2c3ccccc3C(C)(C)[C@]23C=Cc2cc([N+](=O)[O-])ccc2O3)NC(=O)[C@H](CCCCN)NC(=O)[C@H](CCCCN)NC(=O)C(CCC(N)=O)NC(=O)[C@H](CO)NC(=O)CCN2c3ccccc3C(C)(C)[C@]23CCc2cc([N+](=O)[O-])ccc2O3)nn1 (some centres not stated) | > 10 µM | 9.1 µM | 52% | > 10 µM | 22 nM | Active | 828 nM | 12 nM | – | –
